The values below come from patent US12060349B2, “Glucosylceramide synthase inhibitors” (Genzyme Corporation, priority 2012, dated 2024).

The subject of one test is B16 mouse melanoma cells. The experiment in a line: cell viability in the B16 cell-based assay (Viability, B16 IC50). Conditions: Mus musculus, B16, read-out: Viability, B16 IC50. A digest of the protocol:
(§1)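 Cell death was scored within the cell-based GM3 experiment for each line. The viability value is the concentration producing 50% death, and numbers exceeding 10 signify no cytotoxicity.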

Test [1] deals with T1, glucosylceramide synthase (Homo sapiens, UniProt Q16739).
T1 construct: Microsomes were isolated from A375 human melanoma cells; endogenous in cells; host or cells: A375 human melanoma cells (microsomal fraction, 100,000 g pellet)
T1 sequence (Q16739 1-394): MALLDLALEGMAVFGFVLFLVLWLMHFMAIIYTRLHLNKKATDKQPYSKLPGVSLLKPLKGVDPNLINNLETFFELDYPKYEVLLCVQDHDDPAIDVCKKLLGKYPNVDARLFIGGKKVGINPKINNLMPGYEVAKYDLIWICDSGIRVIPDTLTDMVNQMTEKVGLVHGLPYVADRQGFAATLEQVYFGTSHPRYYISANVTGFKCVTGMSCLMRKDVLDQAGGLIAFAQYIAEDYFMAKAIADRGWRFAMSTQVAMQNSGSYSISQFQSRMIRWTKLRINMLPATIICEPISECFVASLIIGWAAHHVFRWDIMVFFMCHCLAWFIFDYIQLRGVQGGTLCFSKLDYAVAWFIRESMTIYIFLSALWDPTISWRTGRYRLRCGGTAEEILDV
The experiment in a line: microsomal assay measuring conversion of ceramide to glucosylceramide by HPLC (GCS IC50). In kind it is biochemical. Conditions: concentration causing 50% inhibition of glucosylceramide synthase activity. In short, it runs like this: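 IC50 is the compound concentration halving glucosylceramide synthase activity. Activity was measured in microsomes, with HPLC quantifying glucosylceramide formed from ceramide.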

Test [2] concerns GM3 expression on the cell surface, C32 human melanoma cells. The test is described as follows: cell based phenotypic assay, cell surface GM3 by antibody mediated immunofluorescence, C32 (GM3 C32 IC50). As to conditions: Homo sapiens, read-out: GM3 C32 IC50, C32 human melanoma cells; 50% inhibition of GM3 expression on the cell surface. A digest of the protocol:
(§2)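 B16 mouse and C32 human melanoma cells; cell-surface GM3 measured by antibody-mediated immunofluorescence, giving IC50.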

For a further test, the system named is jck mice. The experiment in a line: glucosylceramide synthase inhibition in a model of polycystic kidney disease (jck mice). As to conditions: FIG. 3. In kind it is in vivo, mouse. From the text:
Mice homozygous for the Nek8jck mutation develop polycystic kidney disease (“jck mice”). […] Disease is progressive but not evident by kidney palpation until at least 4 to 5 weeks of age. Homozygotes generally remain active until shortly before death and usually die between 20 and 25 weeks of age. […] No histologic abnormalities are found in the liver, spleen, or pancreas. (Atala et al., 1993).
To evaluate the effects of a GCS inhibitor on polycystic kidney disease, Compound 156, (S)-quinuclidin-3-yl (2-(4′-(2-methoxyethoxy)-[1,1′-biphenyl]-4-yl)propan-2-yl)carbamate was administered in the feed of jck mice at doses of 15, 30 and 50 mg/kg. A second compound, quinuclidin-3-yl (2-(4′-fluoro-[1,1′-biphenyl]-3-yl)propan-2-yl)carbamate (hereinafter “GZ 161”) was administered in the feed of jck mice at a dose of 60 mg/kg.
Administration of the compound was started between 3 and 4 weeks of age, and continued until the mice were sacrificed at 9 weeks of age. The effect of the compounds on the disease phenotype was evaluated by measurement of body weight, blood urea nitrogen (“BUN”), and serum GL1. Additional effects on kidney/body weight (K/BW), cyst volume, BUN, kidney GL1, and serum GL1 were also measured at the end of life time point of the study.

Test [3] concerns GM3 expression on the cell surface, B16 mouse melanoma cells. The test is described as follows: cell based phenotypic assay, cell surface GM3 by antibody mediated immunofluorescence, B16 (GM3 B16 IC50). As to conditions: Mus musculus, read-out: GM3 B16 IC50, B16 mouse melanoma cells; 50% inhibition of GM3 expression on the cell surface. In short, it runs like this:
as §2

The next test deals with C32 human melanoma cells. The experiment in a line: cell viability in the C32 cell-based assay (Viability, C32 IC50). Conditions: Homo sapiens, C32, read-out: Viability, C32 IC50, C32 cells; concentration causing 50% cell death; values greater than 10 represent a lack of cell death. In short, it runs like this:
as §1

Another test deals with K14 mouse. The test is described as follows: K14 mouse model of type 2 Gaucher disease. In kind it is in vivo. From the text: As noted above, Gaucher Disease results from a deficiency of the lysosomal enzyme glucocerebrosidase (GC). In the most common phenotype of Gaucher disease (type 1), pathology is limited to the reticuloendothelial and skeletal systems and there are no neuropathic symptoms. See Barranger, Glucosylceramide lipidosis: Gaucher disease. In: Scriver CR BA, Sly WS, Valle D, editor. The Metabolic Basis of Inherited Disease. New York: McGraw-Hill. pp. 3635-3668 (2001). In neuropathic Gaucher disease (nGD), subdivided into type 2 and type 3 Gaucher disease, the deficiency of glucocerebrosidase (GC) causes glucosylceramide (GluCer; GL-1) and glucosylsphingosine (GluSph) to accumulate in the brain, leading to neurologic impairment. Type 2 Gaucher disease is characterized by early onset, rapid progression, extensive pathology in the viscera and central nervous system, and death usually by 2 years of age. Type 3 Gaucher disease, also known as subacute nGD, is an intermediate phenotype with varying age of onset and different degrees of severity and rates of progression. Goker-Alpan et al., The Journal of Pediatrics 143: 273-276 (2003). A recent development has produced the K14 lnl/lnl mouse model of type 2 Gaucher disease (hereinafter, the “K14 mouse”); this mouse model closely recapitulates the human disease showing ataxia, seizures, spasticity and a reduced median lifespan of only 14 days. Enquist et al., PNAS 104: 17483-17488 (2007).
As in patients with nGD, several mouse models of the disease have increased levels of GluCer and GluSph in the brain due to the deficiency in GC activity. Liu et al., PNAS 95: 2503-2508 (1998) and Nilsson, J. Neurochem 39: 709-718 (1982). The “K14” mice display a neuropathic phenotype that shares many pathologic features with type 2 Gaucher disease, such as neurodegeneration, astrogliosis, microglial proliferation, and increased levels of GluCer and GluSph in specific brain regions. Enquist et al. (2007).
Clinical management of patients affected by nGD poses a challenge for treating physicians both because of the severity of type 2 disease and the inability of the current therapies to cross the blood brain barrier (BBB). Current treatment of non-nGD relies on the intravenous delivery of recombinant human glucocerebrosidase (Imiglucerase; Cerezyme™) to replace the missing enzyme or the administration of glucosylceramide synthase inhibitors to attenuate substrate (GL-1) production. […] Current small molecule glucosylceramide synthase inhibitors in the clinic are not likely to address the neuropathic phenotypes of nGD.

The mark [4] stands for this setting: all three dose groups (15, 30 and 50 mg/kg in feed), vs vehicle control group.
Where [5] appears, read: in feed at 15, 30 and 50 mg/kg, associated with GL1 inhibition.

For orientation: IC50 means the concentration that inhibits the measured activity by half. With `COCCOc1ccc(-c2ccc(C(C)(C)NC(=O)O[C@@H]3CN4CCC3CC4)cc2)cc1` [Example 156, (S)-Quinuclidin-3-yl (2-(4′-(2-methoxyethoxy)-[1,1′-biphenyl]-4-yl)propan-2-yl)carbamate], the IC50 with B16 mouse melanoma cells was 4740 nM; in test [1], 4.14 nM; in test [2] it was 1.31 nM; in test [3] it was 43.7 nM; with C32 human melanoma cells, 763 nM. Further, the body weight entry is given as “statistically different” in the test with jck mice (30 mg/kg in feed, vs vehicle control group) and “statistically different” in the test with jck mice (50 mg/kg in feed, vs vehicle control group). The “BUN (blood urea nitrogen)” value in the test on jck mice (setting [4]) is on record as “statistically different”. Further, the cyst volume entry in the test on jck mice (setting [4]) is “statistically different”. The “kidney to body weight (K/BW)” value in the test with jck mice (setting [4]) is on record as “statistically different”. The cyst growth entry in the test on jck mice (setting [5]) is reported as “reduced”. Moreover, the kidney function result in the test with jck mice (setting [5]) was “preservation”. Also, the GL1 levels entry with jck mice (in feed at 15, 30 and 50 mg/kg, from 3-4 weeks to 9 weeks of age, vs vehicle control) is “dose-dependent inhibition”.

For the molecule `CC(C)(NC(=O)OC1CN2CCC1CC2)c1cccc(-c2ccc(F)cc2)c1` (stereo not drawn) [GZ 161, quinuclidin-3-yl (2-(4′-fluoro-[1,1′-biphenyl]-3-yl)propan-2-yl)carbamate], the “kidney to body weight (K/BW)” value in the test with jck mice (60 mg/kg in feed, vs vehicle control group) is recorded as “statistically different”.

With `CC(C)(NC(=O)OC1CN2CCC1CC2)c1cccc(-c2ccc(F)cc2)c1` (stereo not drawn) [Gz161, Quinuclidin-3-yl (2-(4′-fluoro-[1,1′-biphenyl]-3-yl)propan-2-yl)carbamate], in the test with K14 mouse, the “brain GluCer” value is “reduce”, the “brain GluSph” value was “reduce”, the brain neuropathology result is recorded as “reduced” and the lifespan entry is “extended”.
